Assay results as given in ChEMBL document CHEMBL5729619, “Substituted pyrazolo[3,4-b]pyrazines as SHP2 phosphatase inhibitors” (2023).

What follows are molecules tested against T1, Tyrosine-protein phosphatase non-receptor type 11 (Homo sapiens, UniProt Q06124) (assay: Inhibition Assay: SHP2 is allosterically activated through binding of bis-tyrosyl-phorphorylated peptides to its Src Homology 2 (SH2) domains. The latter activation step leads to the release of the auto-inhibitory interface of SHP2, which in turn renders the SHP2 protein tyrosine phosphatase (PTP) active and available for substrate recognition and reaction catalysis. The catalytic activity of SHP2 was monitored using the surrogate substrate DiFMUP in a prompt fluorescence assay format.The inhibition of SHP2 by compounds of the disclosure (concentrations varying from 0.003-100 μM) was monitored using an assay in which 0.25 nM of SHP2 was incubated with of 0.5 μM of peptide IRS1_pY1172(dPEG8)pY1222 (sequence: H2N-LN(pY)IDLDLV(dPEG8)LST(pY)ASINFQK-amide) After 30-60 minutes incubation at 25° C., the surrogate substrate DiFMUP (Invitrogen, cat #D6567, 100 μM final) was added to the reaction and the conversion of DiFMUP to 6,8-difluoro-7-hydroxyl-4-methyl coumarin (DiFMU) was monitored continuously for 10 minutes with excitation at 355 nm and emission at 460 nm using a microplate reader (PolarStar, BMG).).
T1 sequence (Q06124 whole entry): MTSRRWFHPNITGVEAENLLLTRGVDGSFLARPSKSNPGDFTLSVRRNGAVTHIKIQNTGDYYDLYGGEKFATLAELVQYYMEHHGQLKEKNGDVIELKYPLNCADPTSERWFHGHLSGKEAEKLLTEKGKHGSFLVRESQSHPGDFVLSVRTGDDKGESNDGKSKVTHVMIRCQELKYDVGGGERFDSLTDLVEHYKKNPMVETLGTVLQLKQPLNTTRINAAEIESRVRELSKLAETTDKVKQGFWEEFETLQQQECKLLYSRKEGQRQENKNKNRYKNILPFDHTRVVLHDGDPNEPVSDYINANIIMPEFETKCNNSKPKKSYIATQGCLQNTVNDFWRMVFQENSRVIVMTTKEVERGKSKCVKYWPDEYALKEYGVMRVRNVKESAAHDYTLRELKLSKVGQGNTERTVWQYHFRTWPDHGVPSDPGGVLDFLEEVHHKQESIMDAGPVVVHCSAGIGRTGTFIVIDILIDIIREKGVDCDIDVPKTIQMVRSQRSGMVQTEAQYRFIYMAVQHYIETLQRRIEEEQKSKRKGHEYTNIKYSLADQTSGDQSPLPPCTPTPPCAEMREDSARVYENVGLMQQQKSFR

IC50, < 1000 nM:
C[C@@H]1CCN(c2n[nH]c3nc(N4CCC5(CC4)CO[C@@H](C)[C@H]5N)cnc23)c2ccc(C(=O)NCc3cccnc3)nc21, C[C@@H]1OCC2(CCN(c3cnc4c(N5CC(=O)N(C)c6cnccc65)n[nH]c4n3)CC2)[C@@H]1N, C[C@@H]1OCC2(CCN(c3cnc4c(N5CCCc6nc(N7CCN(C)C(=O)C7)ccc65)n[nH]c4n3)CC2)[C@@H]1N, CC1(CN)CCN(c2cnc3c(N4CCc5c(C6CC6)cccc54)n[nH]c3n2)CC1, C[C@@H]1OCC2(CCN(c3cnc4c(N5CCNc6cnccc65)n[nH]c4n3)CC2)[C@@H]1N, C[C@@H]1OCC2(CCN(c3cnc4c(N5CCCc6c5cccc6S(=O)(=O)N(C)C)n[nH]c4n3)CC2)[C@@H]1N
